What was measured:
Assay in all cases: Test G pre/postemergence
Assay type in all cases: in vivo
[1] = system: Canada horseweed (Conyza canadensis)
In short: (§1)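 Seeds or nutlets were planted and treated preemergence with compound formulated in a non-phytotoxic solvent mixture containing surfactant; plants 2 to 18 cm tall (1- to 4-leaf stage) received postemergence sprays of the same formulation. After 12 to 21 days in a greenhouse, injury was rated visually against untreated controls on a 0–100 scale (100 = complete control).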

[2] = system: common chickweed (Stellaria media)
In short: as §1

[3] = system: prickly sida (Sida spinosa)
In short: as §1

[4] = system: common purslane (Portulaca oleracea)
In short: as §1

[5] = system: bermudagrass (Cynodon dactylon)
In short: as §1

[6] = system: large crabgrass (Digitaria sanguinalis)
In short: as §1

[7] = system: pitted morningglory (Ipomoea lacunosa)
In short: as §1

[8] = system: spanishneedles (Bidens bipinnata)
In short: as §1

[9] = system: purple nutsedge (Cyperus rotundus)
In short: as §1

[10] = system: green foxtail (Setaria viridis)
In short: as §1

[11] = system: common sowthistle (Sonchus oleraceous)
In short: as §1

[12] = Postemergence, 8 g ai/ha, scale 0 to 100
[13] = Postemergence, 16 g ai/ha, scale 0 to 100
[14] = Postemergence, 31 g ai/ha, scale 0 to 100
[15] = Postemergence, 62 g ai/ha, scale 0 to 100
[16] = Preemergence, 8 g ai/ha, scale 0-100
[17] = Preemergence, 16 g ai/ha, scale 0-100
[18] = Preemergence, 31 g ai/ha, scale 0-100
[19] = Preemergence, 62 g ai/ha, scale 0-100
[20] = Postemergence, 250 g ai/ha, scale 0 to 100
[21] = Postemergence, 125 g ai/ha, scale 0 to 100
[22] = Preemergence, 125 g ai/ha, scale 0-100
[23] = Preemergence, 250 g ai/ha, scale 0-100

CCOC(=O)c1nc(-c2ccc(Cl)cc2)nc(N)c1Cl [Compound 64, ethyl 6-amino-5-chloro-2-(4-chlorophenyl)-4-pyrimidinecarboxylate]
Plant response rating, Horseweed [1, 12]: 60 | Plant response rating, Horseweed [1, 13]: 60 | Plant response rating, Horseweed [1, 14]: 60 | Plant response rating, Horseweed [1, 15]: 60 | Plant response rating, Horseweed [1, 16]: 0 | Plant response rating, Horseweed [1, 17]: 75 | Plant response rating, Horseweed [1, 18]: 95 | Plant response rating, Horseweed [1, 19]: 95 | Plant response rating, Chickweed [2, 16]: 0 | Plant response rating, Chickweed [2, 18]: 0 | Plant response rating, Chickweed [2, 19]: 0 | Plant response rating, Prickly Sida [3, 12]: 40 | Plant response rating, Prickly Sida [3, 13]: 65 | Plant response rating, Prickly Sida [3, 14]: 75 | Plant response rating, Prickly Sida [3, 15]: 75 | Plant response rating, Prickly Sida [3, 16]: 0 | Plant response rating, Prickly Sida [3, 17]: 0 | Plant response rating, Prickly Sida [3, 18]: 30 | Plant response rating, Prickly Sida [3, 19]: 50 | Plant response rating, Purslane [4, 12]: 0 | Plant response rating, Purslane [4, 13]: 0 | Plant response rating, Purslane [4, 14]: 0 | Plant response rating, Purslane [4, 15]: 60 | Plant response rating, Purslane [4, 16]: 0 | Plant response rating, Purslane [4, 17]: 0 | Plant response rating, Purslane [4, 18]: 0 | Plant response rating, Purslane [4, 19]: 35 | Plant response rating, Bermudagrass [5, 12]: 0 | Plant response rating, Bermudagrass [5, 13]: 20 | Plant response rating, Bermudagrass [5, 14]: 35 | Plant response rating, Bermudagrass [5, 15]: 35 | Plant response rating, Bermudagrass [5, 16]: 0 | Plant response rating, Bermudagrass [5, 17]: 0 | Plant response rating, Bermudagrass [5, 18]: 0 | Plant response rating, Bermudagrass [5, 19]: 0 | Plant response rating, Crabgrass, Large [6, 12]: 30 | Plant response rating, Crabgrass, Large [6, 13]: 50 | Plant response rating, Crabgrass, Large [6, 14]: 70 | Plant response rating, Crabgrass, Large [6, 15]: 80 | Plant response rating, Crabgrass, Large [6, 16]: 0 | Plant response rating, Crabgrass, Large [6, 17]: 0 | Plant response rating, Crabgrass, Large [6, 18]: 0 | Plant response rating, Crabgrass, Large [6, 19]: 35 | Plant response rating, Morningglory [7, 12]: 0 | Plant response rating, Morningglory [7, 13]: 0 | Plant response rating, Morningglory [7, 14]: 20 | Plant response rating, Morningglory [7, 15]: 65 | Plant response rating, Morningglory [7, 16]: 0 | Plant response rating, Morningglory [7, 17]: 0 | Plant response rating, Morningglory [7, 18]: 0 | Plant response rating, Morningglory [7, 19]: 0 | Plant response rating, Spanishneedles [8, 12]: 65 | Plant response rating, Spanishneedles [8, 13]: 75 | Plant response rating, Spanishneedles [8, 14]: 90 | Plant response rating, Spanishneedles [8, 15]: 90 | Plant response rating, Spanishneedles [8, 16]: 0 | Plant response rating, Spanishneedles [8, 17]: 0 | Plant response rating, Spanishneedles [8, 18]: 0 | Plant response rating, Spanishneedles [8, 19]: 35 | Plant response rating, Nutsedge, Purple [9, 12]: 0 | Plant response rating, Nutsedge, Purple [9, 13]: 35 | Plant response rating, Nutsedge, Purple [9, 14]: 35 | Plant response rating, Nutsedge, Purple [9, 15]: 35 | Plant response rating, Nutsedge, Purple [9, 16]: 0 | Plant response rating, Nutsedge, Purple [9, 17]: 0 | Plant response rating, Nutsedge, Purple [9, 18]: 0 | Plant response rating, Nutsedge, Purple [9, 19]: 0 | Plant response rating, Foxtail, Green [10, 12]: 0 | Plant response rating, Foxtail, Green [10, 13]: 0 | Plant response rating, Foxtail, Green [10, 14]: 0 | Plant response rating, Foxtail, Green [10, 15]: 0 | Plant response rating, Foxtail, Green [10, 16]: 0 | Plant response rating, Foxtail, Green [10, 17]: 0 | Plant response rating, Foxtail, Green [10, 18]: 0 | Plant response rating, Foxtail, Green [10, 19]: 0 | Plant response rating, Sowthistle [11, 12]: 65 | Plant response rating, Sowthistle [11, 13]: 80 | Plant response rating, Sowthistle [11, 14]: 80 | Plant response rating, Sowthistle [11, 15]: 80 | Plant response rating, Sowthistle [11, 16]: 0 | Plant response rating, Sowthistle [11, 17]: 0 | Plant response rating, Sowthistle [11, 18]: 35 | Plant response rating, Sowthistle [11, 19]: 90

Nc1nc(C2CC2)nc(C(=O)[O-])c1Cl.[Na+] [Compound 77, 6-amino-5-chloro-2-cyclopropyl-4-pyrimidinecarboxylic acid monosodium salt]
Plant response rating, Horseweed [1, 20]: 80 | Plant response rating, Horseweed [1, 13]: 40 | Plant response rating, Horseweed [1, 14]: 50 | Plant response rating, Horseweed [1, 15]: 75 | Plant response rating, Horseweed [1, 21]: 80 | Plant response rating, Horseweed [1, 17]: 70 | Plant response rating, Horseweed [1, 18]: 90 | Plant response rating, Horseweed [1, 19]: 100 | Plant response rating, Horseweed [1, 22]: 100 | Plant response rating, Horseweed [1, 23]: 100 | Plant response rating, Chickweed [2, 20]: 100 | Plant response rating, Chickweed [2, 13]: 10 | Plant response rating, Chickweed [2, 14]: 80 | Plant response rating, Chickweed [2, 15]: 90 | Plant response rating, Chickweed [2, 21]: 90 | Plant response rating, Chickweed [2, 18]: 70 | Plant response rating, Chickweed [2, 19]: 90 | Plant response rating, Chickweed [2, 22]: 100 | Plant response rating, Chickweed [2, 23]: 100 | Plant response rating, Prickly Sida [3, 20]: 80 | Plant response rating, Prickly Sida [3, 13]: 70 | Plant response rating, Prickly Sida [3, 14]: 75 | Plant response rating, Prickly Sida [3, 15]: 80 | Plant response rating, Prickly Sida [3, 21]: 80 | Plant response rating, Prickly Sida [3, 17]: 70 | Plant response rating, Prickly Sida [3, 18]: 75 | Plant response rating, Prickly Sida [3, 19]: 85 | Plant response rating, Prickly Sida [3, 22]: 90 | Plant response rating, Prickly Sida [3, 23]: 95 | Plant response rating, Purslane [4, 20]: 85 | Plant response rating, Purslane [4, 13]: 20 | Plant response rating, Purslane [4, 14]: 20 | Plant response rating, Purslane [4, 15]: 60 | Plant response rating, Purslane [4, 21]: 70 | Plant response rating, Purslane [4, 17]: 45 | Plant response rating, Purslane [4, 18]: 60 | Plant response rating, Purslane [4, 19]: 75 | Plant response rating, Purslane [4, 22]: 100 | Plant response rating, Purslane [4, 23]: 100 | Plant response rating, Bermudagrass [5, 20]: 50 | Plant response rating, Bermudagrass [5, 13]: 10 | Plant response rating, Bermudagrass [5, 14]: 20 | Plant response rating, Bermudagrass [5, 15]: 35 | Plant response rating, Bermudagrass [5, 21]: 35 | Plant response rating, Bermudagrass [5, 17]: 0 | Plant response rating, Bermudagrass [5, 18]: 0 | Plant response rating, Bermudagrass [5, 19]: 0 | Plant response rating, Bermudagrass [5, 22]: 10 | Plant response rating, Bermudagrass [5, 23]: 60 | Plant response rating, Crabgrass, Large [6, 20]: 75 | Plant response rating, Crabgrass, Large [6, 13]: 60 | Plant response rating, Crabgrass, Large [6, 14]: 70 | Plant response rating, Crabgrass, Large [6, 15]: 75 | Plant response rating, Crabgrass, Large [6, 21]: 75 | Plant response rating, Crabgrass, Large [6, 17]: 45 | Plant response rating, Crabgrass, Large [6, 18]: 45 | Plant response rating, Crabgrass, Large [6, 19]: 80 | Plant response rating, Crabgrass, Large [6, 22]: 85 | Plant response rating, Crabgrass, Large [6, 23]: 90 | Plant response rating, Morningglory [7, 20]: 100 | Plant response rating, Morningglory [7, 13]: 50 | Plant response rating, Morningglory [7, 14]: 60 | Plant response rating, Morningglory [7, 15]: 90 | Plant response rating, Morningglory [7, 21]: 100 | Plant response rating, Morningglory [7, 17]: 70 | Plant response rating, Morningglory [7, 18]: 90 | Plant response rating, Morningglory [7, 19]: 100 | Plant response rating, Morningglory [7, 22]: 100 | Plant response rating, Morningglory [7, 23]: 100 | Plant response rating, Spanishneedles [8, 20]: 98 | Plant response rating, Spanishneedles [8, 13]: 75 | Plant response rating, Spanishneedles [8, 14]: 95 | Plant response rating, Spanishneedles [8, 15]: 98 | Plant response rating, Spanishneedles [8, 21]: 98 | Plant response rating, Nutsedge, Purple [9, 20]: 40 | Plant response rating, Nutsedge, Purple [9, 13]: 0 | Plant response rating, Nutsedge, Purple [9, 14]: 0 | Plant response rating, Nutsedge, Purple [9, 15]: 0 | Plant response rating, Nutsedge, Purple [9, 21]: 0 | Plant response rating, Nutsedge, Purple [9, 17]: 100 | Plant response rating, Nutsedge, Purple [9, 18]: 100 | Plant response rating, Nutsedge, Purple [9, 19]: 100 | Plant response rating, Nutsedge, Purple [9, 22]: 100 | Plant response rating, Nutsedge, Purple [9, 23]: 100 | Plant response rating, Foxtail, Green [10, 20]: 40 | Plant response rating, Foxtail, Green [10, 13]: 0 | Plant response rating, Foxtail, Green [10, 14]: 0 | Plant response rating, Foxtail, Green [10, 15]: 35 | Plant response rating, Foxtail, Green [10, 21]: 40 | Plant response rating, Foxtail, Green [10, 17]: 0 | Plant response rating, Foxtail, Green [10, 18]: 5 | Plant response rating, Foxtail, Green [10, 19]: 65 | Plant response rating, Foxtail, Green [10, 22]: 85 | Plant response rating, Foxtail, Green [10, 23]: 90 | Plant response rating, Sowthistle [11, 20]: 95 | Plant response rating, Sowthistle [11, 13]: 75 | Plant response rating, Sowthistle [11, 14]: 90 | Plant response rating, Sowthistle [11, 15]: 90 | Plant response rating, Sowthistle [11, 21]: 95 | Plant response rating, Sowthistle [11, 17]: 80 | Plant response rating, Sowthistle [11, 18]: 100 | Plant response rating, Sowthistle [11, 19]: 100 | Plant response rating, Sowthistle [11, 22]: 100 | Plant response rating, Sowthistle [11, 23]: 100

— patent US8802597B2, “Herbicidal pyrimidines” (E I du Pont de Nemours and Company, priority 2003, dated 2014)
